Tests used:
[1] = system: IgM anti-MAG demyelinating neuropathy; conditions: controlled trial (Léger et al, 2013); cited from earlier work
[2] = system: patient suffering from ALS; experiment: Treatment of a patient suffering from ALS with high doses biotin (case report); assay type: in vivo, human
Method: Treatment with biotin 100 mg three times a day was started the 11 Sep. 2015. […] All these medications were introduced at least 6 months before.

[3] = system: patients with demyelinating Charcot Marie Tooth (CMT) disease; experiment: Treatment of patients with demyelinating Charcot Marie Tooth disease, 6 minutes walking test; assay type: in vivo, human
Method: Two patients with demyelinating Charcot Marie Tooth (CMT) disease were treated with biotin 300 mg/day. • A patient with CMT1a was treated with high doses of biotin (100 mg three times a day). No other treatment was introduced. The patient was followed clinically using a 6 minutes walking test. After 9 months of treatment the maximum walking distance was improved by 100 meters. • A person with CMT1E (a rare form of demyelinating CMT with hearing loss) was treated with high doses biotin (100 mg three times a day). No other drug was introduced.

[4] = system: patients diagnosed with Neuromyelitis optica; experiment: Treatment of patients with neuromyelitis optica, visual acuity and motor strength; assay type: in vivo, human; conditions: for visual acuity right: 0/10 at onset; for visual acuity left: 9/10 at onset
Description: Biotin can be used for treatment of neuromyelitis optica, using the same kind of regimen as disclosed in Examples 1 and 4.
Endpoint would be partial recovery and improvement of vision or of motor strength. Three patients will be treated and assessed every 6 months with measures of visual acuity (VA) and clinical examination including motor strength testing. Results will be considered positive in case of improvement of VA of at least 5 letters associated with any improvement of motor strength.
Results: • Patient 1: this person was diagnosed with Neuromyelitis optica. First episode of right optic neuritis occurred in 2006. This was followed by an attack of tetraplegia in 2009 with positive anti-NMO antibodies. […] The patient could not walk. Treatment with biotin (100 mg three times a day) was started. […] Treatment with biotin (100 mg three times a day) was introduced. At that time the patient was treated with monthly perfusions of cyclophosphamide. Visual acuity was 0/10 right and 9/10 left. After 4 months of treatment with biotin, visual acuity was 1/10 right and 6/10 left. After 18 months of treatment, visual acuity was 2/10 right and 8/10 left. It was concluded that treatment with biotin improved the right visual acuity.

[5] = in vivo; cited from earlier work
[6] = system: CMT1A; conditions: six clinical trials, 1- or 2-year AA treatment; cited from earlier work
[7] = biotin 100 mg three times a day

**Q.** With Rituximab: monoclonal antibody as the molecule, how does the patients condition [1] read?
**A.** didn't really improve

**Q.** Which “time the patient could switch off the medical ventilator” value ([2]; after 6 months of treatment, dependent on ventilator 24 hours a day at beginning) does the source give for `O=C(O)CCCC[C@@H]1SC[C@@H]2NC(=O)N[C@@H]21` [biotin, Biotin] here?
**A.** 4 hours a day

**Q.** What about the disability [2, 7] of the same molecule?
**A.** some stabilization of its disability

**Q.** What about the “weight of the patient” value [2, 7] of the same molecule?
**A.** slightly increased

**Q.** And the “muscle atrophy in lower extremities” value ([2]; biotin 100 mg three times a day, after 3 and 6 months, better exercise tolerance during physical therapy)?
**A.** some improvement

**Q.** And the “limbs weakness and swallowing” value ([2]; biotin 100 mg three times a day, after 3 and 6 months, concomitant riluzole and other medications)?
**A.** stabilization

**Q.** And the “6 minutes walk test” value ([3]; CMT1E patient, after 9 months, 396 meters at onset)?
**A.** 490 meters

**Q.** What about the “6 minutes walk test” value ([3]; CMT1E patient, after 12 months, 396 meters at onset) of the same molecule?
**A.** 480 meters

**Q.** And the “6 minutes walk test” value ([3]; CMT1E patient, after 18 months, 396 meters at onset)?
**A.** 483 meters

**Q.** What about the “6 minutes walk test” value ([3]; CMT1E patient, after 24 months, 396 meters at onset) of the same molecule?
**A.** 580 meters

**Q.** And the “improvement of maximum walking distance, 6 minutes walking test” value ([3]; patient with CMT1a, biotin 100 mg three times a day, after 9 months)?
**A.** 100 meters

**Q.** And the “6 minutes walk test” value ([3]; person with CMT1E, biotin 100 mg three times a day, after 3 months, 396 meters at treatment's onset)?
**A.** 515 meters

**Q.** What about the “strength in the right lower limb” value ([4]; NMO Patient 1, after 9 months) of the same molecule?
**A.** better strength

**Q.** What about the walking ability ([4]; NMO Patient 1, after 24 months, could not walk at onset) of the same molecule?
**A.** walk with two aids and the help of the physical therapist

**Q.** And the tolerability of treatment ([4]; NMO Patient 1, biotin 100 mg three times a day, 24 months)?
**A.** very well tolerated

**Q.** And the right hand movements ([4]; NMO Patient 1, biotin 100 mg three times a day, after three months, confirmed after 9 months)?
**A.** some improvement

**Q.** And the visual acuity right ([4]; NMO Patient 2, after 4 months of biotin 100 mg three times a day, monthly cyclophosphamide)?
**A.** 1/10

**Q.** And the visual acuity left ([4]; NMO Patient 2, after 4 months)?
**A.** 6/10

**Q.** What about the visual acuity right ([4]; NMO Patient 2, after 18 months) of the same molecule?
**A.** 2/10

**Q.** What about the visual acuity left ([4]; NMO Patient 2, after 18 months) of the same molecule?
**A.** 8/10

**Q.** What about the plasma half life [5] of the same molecule?
**A.** about 2 hours

**Q.** For `O=C1O[C@H]([C@@H](O)CO)C(O)=C1O` [Ascorbic acid], which clinical benefit [6] is on record?
**A.** no clinical benefit

— patent publication US10357480B2, “Biotin for treating peripheral demyelinating neuropathy” (MedDay Pharmaceuticals, priority 2015, dated 2019)
